Reference: PubChem BioAssay (NCI)
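1) Cells in 96-well plates. 2) Compound, 48 h, 5 concentrations. 3) Linear interpolation between surrounding doses. 4) Unreached endpoint = highest concentration. TGI: total growth inhibition.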

Experiments:
Assay in all cases: inhibition of tumour cell growth, NCI panel, 48 h
IGROV1 ovarian = system: IGROV1 ovarian
SNB-19 CNS = system: SNB-19 CNS
OVCAR-3 ovarian = system: OVCAR-3 ovarian
HL-60(TB) leukemia = system: HL-60(TB) leukemia
CCRF-CEM leukemia = system: CCRF-CEM leukemia
A549 NSCLC = system: A549 NSCLC
SNB-75 CNS = system: SNB-75 CNS
SN12C renal = system: SN12C renal
EKVX NSCLC = system: EKVX NSCLC
KM12 colon = system: KM12 colon
SK-MEL-2 melanoma = system: SK-MEL-2 melanoma
DMS 273 small cell lung = system: DMS 273 small cell lung
SF-539 CNS = system: SF-539 CNS
SW-620 colon = system: SW-620 colon
HCT-15 colon = system: HCT-15 colon
XF 498 CNS = system: XF 498 CNS
HOP-62 NSCLC = system: HOP-62 NSCLC
HOP-92 NSCLC = system: HOP-92 NSCLC
HCT-116 colon = system: HCT-116 colon
M19-MEL melanoma = system: M19-MEL melanoma

SMILES	TGI (IGROV1 ovarian) [µM]	TGI (SNB-19 CNS) [µM]	TGI (OVCAR-3 ovarian) [µM]	TGI (HL-60(TB) leukemia) [µM]	TGI (CCRF-CEM leukemia) [µM]	TGI (A549 NSCLC) [µM]	TGI (SNB-75 CNS) [µM]	TGI (SN12C renal) [µM]	TGI (EKVX NSCLC) [µM]	TGI (KM12 colon) [µM]	TGI (SK-MEL-2 melanoma) [µM]	TGI (DMS 273 small cell lung) [µM]	TGI (SF-539 CNS) [µM]	TGI (SW-620 colon) [µM]	TGI (HCT-15 colon) [µM]	TGI (XF 498 CNS) [µM]	TGI (HOP-62 NSCLC) [µM]	TGI (HOP-92 NSCLC) [µM]	TGI (HCT-116 colon) [µM]	TGI (M19-MEL melanoma) [µM]
Cn1c(=O)c2nc(NCCO)cnc2n(C)c1=O	> 100	> 100	57.9	76.9	> 100	> 100	42.4	> 100	> 100	> 100	> 100	> 100	88.7	> 100	> 100	> 100	> 100	> 100	> 100	> 100
Cc1c(N=NN(C)C)cc[n+]([O-])c1C	> 100	> 100	> 100	> 100	> 100	> 100	> 100	> 100	> 100	> 100	> 100	> 100	> 100	> 100	> 100	> 100	> 100	> 100	> 100	> 100
Cc1cc2c(C(C)C)c(O)c(O)c(C=Nc3ccccc3)c2c(O)c1-c1c(C)cc2c(C(C)C)c(O)c(O)c(C=Nc3ccccc3)c2c1O	> 100	> 100	> 100	> 100	> 100	> 100	> 100	> 100	> 100	> 100	> 100	> 100	> 100	> 100	> 100	> 100	> 100	> 100	> 100	> 100
